In patent publication US10413556B1, “Production of insulin by testosterone olfaction” (priority 2019, dated 2019):
Values joined by “and” are separate entries in the source; they are usually repeats but may differ in a detail not shown here. Equal values may be shown once.

How the values were obtained:
[1] = test system: blood sugar level; experiment: Blood sugar level in men before and after testosterone olfaction; format: in vivo
Method: To evaluate the possible role of testosterone in blood sugar reduction in diabetes type 2, the following protocol was designed.
Ten men between the ages of 30 to 90 volunteered to participate in this study as subjects. Approximately one and a half hours after having a meal the subject came to Applicant's office. Prior to the testosterone olfaction the blood sugar level was measured.
The subject produced an adequately sized drop of blood from a finger using a lancing device. The blood sugar was measured with a Contour Blood Glucose Monitoring System, Model 9546 C, Serial Number FB00450. The drop of blood was picked up by a Contour blood glucose test strip 7097C specific for the instrument and within the usable date range. This value was recorded as mg/dL.
A drop of pure testosterone diluted 1:1000 in ethanol was sprayed onto the palm of the hand and smelled by the subject. […] This concentration more efficient than the undiluted hormone.
A second blood drop was immediately taken and measured and recorded in the same manner as described above.

[2] = test system: insulin resistance; conditions: type 2 diabetic men with low testosterone, weekly injections for 24 weeks; cited from earlier work
[3] = test system: free testosterone production; experiment: Testosterone production after olfaction of testosterone or truffle extract; format: in vivo; conditions: olfaction of pure testosterone; unpublished research
Source text: Olfaction, the sense of smell, is critical for the survival of almost all creatures. Humans are able to distinguish over 10,000 different odor molecules. With every inhalation, currents of air swirl through the nostrils over the bony turbinates in the nose that contain receptors in the olfactory epithelium. Olfactory mucosa protects the olfactory epithelium and allows odors to dissolve for detection by olfactory receptors. The cilia projecting from the olfactory knob contain receptors for odorants. The cilia project from the knob directly into the […]. The interaction of the right molecule with the right receptor causes a structural transformation of the receptor, which gives rise to an electrical signal to the olfactory bulb and thence to the areas in the limbic brain that perceive it as the original smell.
(§1) These studies raised the question: is this action by olfaction unique to testosterone or can the effect be observed with other hormones? To answer this question, Applicant studied progesterone olfaction in 10 postmenopausal women. Progesterone is the primary female sex hormone and testosterone is the primary male sex hormone. […] This is a ground-breaking discovery: smelling the hormones that have been tested caused the body to produce the hormone that is smelled. However, it is still unknown whether hormone olfaction will work with hormones other than sex hormones.

[4] = test system: progesterone production; experiment: Progesterone olfaction in postmenopausal women; format: in vivo; conditions: 10 postmenopausal women; unpublished studies
Source text: as §1

Row | Structure (SMILES) | percent reduction of sugar level, average for all ten ([1]; average of ten subjects, after testosterone olfaction) | PERCENT CHANGE of blood sugar ([1]; individual subject, before vs after olfaction of testosterone 1:1000 in ethanol) | blood sugar AFTER OLFACTION ([1]; individual subject, measured immediately after smelling testosterone diluted 1:1000 in ethanol, about 1.5 h after a meal, finger blood) | effect of other concentrations compared with 1:1000 dilution ([1]; prior studies, other concentrations of testosterone) | effect on blood sugar level ([1]; testosterone olfaction used alone, ten men) | time in which olfaction lowers blood sugar ([1]; time to lance the finger, collect the blood and test) | ability to utilize insulin [2] | testosterone production after olfaction [3] | progesterone production after olfaction [4]
1 | C[C@]12CC[C@H]3[C@@H](CCC4=CC(=O)CC[C@@]43C)[C@@H]1CC[C@@H]2O [testosterone] | 36% | 56% and 30% (2×) and 38% and 19% and 17% and 34% and 70% and 53% and 12% | 86 mg/dL (2×) and 99 mg/dL (2×) and 109 mg/dL and 107 mg/dL and 130 mg/dL and 158 mg/dL and 98 mg/dL and 92 mg/dL | essentially the same effect | lowers the blood sugar level | about 30 seconds | improved | does initiate testosterone production | 
2 | CC(=O)[C@H]1CC[C@H]2[C@@H]3CCC4=CC(=O)CC[C@]4(C)[C@H]3CC[C@]12C [progesterone] |  |  |  |  |  |  |  |  | does initiate production of progesterone
